Measurements reported in US20250296953A1, “3,4-THIAZOLO-STEROIDS AND METHODS OF MAKING AND USING THE SAME” (Arkansas State University - Jonesboro, priority 2018, published 2025).
Where two headings read alike, the source gives them in different places.

What was measured:
[1] = system: HCT-15 (Colon Cancer); assay: NCI 60 one dose screen; format: cell-based, human
[2] = system: SF-295; assay: NCI 60 one dose screen; format: cell-based, human; details: one dose; CNS Cancer; SF-295
[3] = system: SF-539; assay: NCI 60 one dose screen; format: cell-based, human; details: one dose; CNS Cancer; SF-539
[4] = system: 60 different human tumor cell lines; details: five dose
[5] = system: gliosarcoma (SF-539); assay: NCI 60 five dose screen
[6] = system: SR; assay: NCI 60 five dose screen

In the case of C[C@]12CC[C@H]3[C@@H](CC=C4c5sc(-c6ccc(O)cc6)nc5CC[C@@]43C)[C@@H]1CC[C@@H]2O [III.5, (1S,2R,13R,14S,17S,18S)-7-(4-hydroxyphenyl)-2,18-dimethyl-8-thia-6-azapentacyclo[11.7.0.02,10.05,9.014,18]icosa-5(9),6,10-trien-17-ol], the “Growth Percent” value [1] is reported as 29.48%, the “Growth Percent” value [2] is reported as −36.24% and the “Growth Percent” value [3] is reported as 8.02%. It also gave a TGI ([4]; 786-0 (Renal Cancer)) of 2.39E−6, a TGI ([4]; A498 (Renal Cancer)) of 2.13E−5 and a TGI ([4]; A549/ATCC (Non-small Cell Lung Cancer)) of over 1.00E−4. For the same compound, the TGI ([4]; ACHN (Renal Cancer)) was over 1.00E−4, the TGI ([4]; BT-549 (Breast Cancer)) was 1.94E−5 and the TGI ([4]; CAKI-1 (Renal Cancer)) was over 1.00E−4. For the same compound, the TGI ([4]; CCRF-CEM (Leukemia)) was 4.72E−5, the TGI ([4]; COLO 205 (Colon Cancer)) was over 1.00E−4 and the TGI ([4]; DU-145 (Prostate Cancer)) was over 1.00E−4. For the same compound, the TGI ([4]; EKVX (Non-small Cell Lung Cancer)) was over 1.00E−4, the TGI ([4]; HCC-2998 (Colon Cancer)) was over 1.00E−4 and the TGI ([4]; HCT-15 (Colon Cancer)) was 2.07E−5. It also gave a TGI ([4]; HCT-116 (Colon Cancer)) of 2.74E−5, a TGI ([4]; HL-60(TB) (Leukemia)) of over 1.00E−4 and a TGI ([4]; HOP-62 (Non-small Cell Lung Cancer)) of 5.05E−5. The TGI ([4]; HS 578T (Breast Cancer)) was 6.01E−5, the TGI ([4]; HT29 (Colon Cancer)) was 2.04E−5 and the TGI ([4]; IGROV1 (Ovarian Cancer)) was over 1.00E−4. For the same compound, the TGI ([4]; K-562 (Leukemia)) was over 1.00E−4, the TGI ([4]; KM12 (Colon Cancer)) was over 1.00E−4 and the TGI ([4]; LOX IMVI (Melanoma)) was 1.46E−5. It also gave a TGI ([4]; M14 (Melanoma)) of 2.93E−5, a TGI ([4]; MALME-3M (Melanoma)) of over 1.00E−4 and a TGI ([4]; MCF7 (Breast Cancer)) of 2.15E−5. For the same compound, the TGI ([4]; MDA-MB-231/ATCC (Breast Cancer)) was 3.29E−5, the TGI ([4]; MDA-MB-435 (Melanoma)) was over 1.00E−4 and the TGI ([4]; MDA-MB-468 (Breast Cancer)) was 4.16E−5. For the same compound, the TGI ([4]; MOLT-4 (Leukemia)) was over 1.00E−4, the TGI ([4]; NCI-H23 (Non-small Cell Lung Cancer)) was over 1.00E−4 and the TGI ([4]; NCI-H226 (Non-small Cell Lung Cancer)) was over 1.00E−4. The TGI ([4]; NCI-H322M (Non-small Cell Lung Cancer)) was over 1.00E−4, the TGI ([4]; NCI-H460 (Non-small Cell Lung Cancer)) was over 1.00E−4 and the TGI ([4]; NCI-H522 (Non-small Cell Lung Cancer)) was over 1.00E−4. The TGI ([4]; NCI/ADR-RES (Ovarian Cancer)) was over 1.00E−4, the TGI ([4]; OVCAR-3 (Ovarian Cancer)) was 8.37E−5 and the TGI ([4]; OVCAR-4 (Ovarian Cancer)) was over 1.00E−4. For the same compound, the TGI ([4]; OVCAR-5 (Ovarian Cancer)) was over 1.00E−4, the TGI ([4]; OVCAR-8 (Ovarian Cancer)) was over 1.00E−4 and the TGI ([4]; RXF 393 (Renal Cancer)) was 1.31E−6. It also gave a TGI ([4]; SF-268 (CNS Cancer)) of over 1.00E−4, a TGI ([4]; SK-MEL-2 (Melanoma)) of 6.94E−5 and a TGI ([4]; SK-MEL-5 (Melanoma)) of 1.31E−5. The TGI ([4]; SK-MEL-28 (Melanoma)) was 6.60E−5, the TGI ([4]; SK-OV-3 (Ovarian Cancer)) was over 1.00E−4 and the TGI ([4]; SN12C (Renal Cancer)) was over 1.00E−4. The TGI ([4]; SNB-19 (CNS Cancer)) was over 1.00E−4, the TGI ([4]; SNB-75 (CNS Cancer)) was 2.57E−5 and the TGI ([4]; SW-620 (Colon Cancer)) was over 1.00E−4. For the same compound, the TGI ([4]; T-47D (Breast Cancer)) was over 1.00E−4, the TGI ([4]; TK-10 (Renal Cancer)) was over 1.00E−4 and the TGI ([4]; U251 (CNS Cancer)) was 6.73E−5. For the same compound, the TGI ([4]; UACC-62 (Melanoma)) was 7.64E−6, the TGI ([4]; UACC-257 (Melanoma)) was over 1.00E−4 and the TGI ([4]; UO-31 (Renal Cancer)) was 2.04E−5. The GI50 ([5]; Homo sapiens, SF-539) was 0.454 µM, the CC50 ([5]; Homo sapiens, SF-539, read-out: LC50) was 91.7 µM and the TGI ([5]; SF-539 (CNS Cancer), five dose) was 3.23E−6. The GI50 ([6]; Homo sapiens, SR) was 1.37 µM, the CC50 ([6]; Homo sapiens, SR, read-out: LC50) was over 100 µM and the TGI ([6]; SR (Leukemia), five dose) was 3.38E−5.
